In patent US6699892B2, “Pharmaceutically acceptable salt of amlodipine and method of preparing the same” (Yung Shin Pharmaceutical Industrial Co., Ltd., priority 2002, dated 2004):
≈ marks a conversion by molar mass, not a printed value. Like-named read-outs stand apart in the source and are kept apart here.

Experiments:
[1] = aqueous solution
[2] = Solubility in water at room temperature (saturated aqueous solution); assay type: physicochemical; conditions: room temperature of about 25° C.
Procedure: At the ambient temperature (room temperature of about 25° C.), a saturated aqueous solution of amlodipine nicotinate contains about 6.0 mg of the chemical per mL of water. In comparison, a saturated aqueous solution of amlodipine besylate contains about 2.0 mg of the chemical per mL of water.

[3] = assay type: physicochemical; conditions: 3 weeks
Procedure: The stability of amlodipine nicotinate and amlodipine besylate was tested at 45° C. and 75° C. for 3 weeks.

[4] = listed as amlodipine nicotinate

| Structure (SMILES) | pH Value [1] | Solubility in Water at Room Temperature [2] | Stability Test (% of Sample Purity) (3-week) 45° C. [3] | Stability Test (% of Sample Purity) (3-week) 75° C. [3] | pH Value [1, 4] | Solubility in Water at Room Temperature [2, 4] |
| --- | --- | --- | --- | --- | --- | --- |
| CCOC(=O)C1=C(COCCN)NC(C)=C(C(=O)OC)C1c1ccccc1Cl (stereo not shown) [Amlodipine Besylate, amlodipine besylate, reference compound] | 6.09 | about 2.0 mg/ml | 99.6% | 97.8% | – | – |
| CCOC(=O)C1=C(COCCN)NC(C)=C(C(=O)OC)C1c1ccccc1Cl (stereo not shown) [Amlodipine Nicotinate, amlodipine nicotinate] | 5.34 | 6.0 mg/mL (≈ 14.7 mM) | 99.7% | 99.2% | 5.34 | about 6.0 mg/ml |
